Tested on: 521955-158-R2-J5-PDC complex spheroid growth, % test/control
Assay: Anticancer human tumor 521955-158-R2-J5-PDC patient-derived pancreatic carcinoma cell line growth inhibition [Asc]
Settings: for IC50: curve of first compound; for viability, T/C: stronger effect = lower value
How it was run: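 Stromal components (HUVEC and hMSC) are co-assembled with the cancer cells into multicellular spheroids. Drugs are then added singly or paired, at concentrations falling by half-log increments from a clinically achievable maximum, capped at 10 microM without known Cmax.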

[1] = second compound 0.01 µM, first compound 0.00316 µM
[2] = second compound 0.01 µM, first compound 0.01 µM
[3] = second compound 0.01 µM, first compound 0.0316 µM
[4] = second compound 0.01 µM, first compound 0.1 µM
[5] = second compound 0.0316 µM, first compound 0.00316 µM
[6] = second compound 0.0316 µM, first compound 0.01 µM
[7] = second compound 0.0316 µM, first compound 0.0316 µM
[8] = second compound 0.0316 µM, first compound 0.1 µM
[9] = second compound 0.1 µM, first compound 0.00316 µM
[10] = second compound 0.1 µM, first compound 0.01 µM
[11] = second compound 0.1 µM, first compound 0.0316 µM
[12] = second compound 0.1 µM, first compound 0.1 µM
[13] = second compound 0.316 µM, first compound 0.00316 µM
[14] = second compound 0.316 µM, first compound 0.01 µM
[15] = second compound 0.316 µM, first compound 0.0316 µM
[16] = second compound 0.316 µM, first compound 0.1 µM
[17] = second compound 1 µM, first compound 0.00316 µM
[18] = second compound 1 µM, first compound 0.01 µM
[19] = second compound 1 µM, first compound 0.0316 µM
[20] = second compound 1 µM, first compound 0.1 µM
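Further: spheroids exposed to agents for 7 days before readout.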
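Wherever viability, T/C is given: 100% = DMSO vehicle control viability.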

Work on `NC1CCC(NC2CC2c2ccccc2)CC1` (stereo not given) + CNC(C)C(=O)NC1CN(S(=O)(=O)c2cccc(S(=O)(=O)N3CCC4CCC(C(=O)NC(c5ccccc5)c5ccccc5)N4C(=O)C(NC(=O)C(C)NC)C3)c2)CCC2CCC(C(=O)NC(c3ccccc3)c3ccccc3)N2C1=O yielded an IC50 (second compound 0.01 µM) greater than 100 nM, an IC50 (second compound 0.0316 µM) greater than 100 nM and an IC50 (second compound 0.1 µM) greater than 100 nM. For the same compound, the IC50 (second compound 0.316 µM) was greater than 100 nM, the IC50 (second compound 1 µM) was greater than 100 nM and the viability, T/C (second compound 0.01 µM, first compound 0.000316 µM) was 79.9%. It also gave a viability, T/C (second compound 0.01 µM, first compound 0.001 µM) of 70.7%, a viability, T/C [1] of 82.2% and a viability, T/C [2] of 80.9%. The viability, T/C [3] was 71.6%, the viability, T/C [4] was 69.1% and the viability, T/C (second compound 0.0316 µM, first compound 0.000316 µM) was 88.5%. For the same compound, the viability, T/C (second compound 0.0316 µM, first compound 0.001 µM) was 81.4%, the viability, T/C [5] was 61% and the viability, T/C [6] was 79%. The viability, T/C [7] was 72%, the viability, T/C [8] was 64.8% and the viability, T/C (second compound 0.1 µM, first compound 0.000316 µM) was 66.5%. It also gave a viability, T/C (second compound 0.1 µM, first compound 0.001 µM) of 83.7%, a viability, T/C [9] of 80.7% and a viability, T/C [10] of 74.2%. The viability, T/C [11] was 85.8%, the viability, T/C [12] was 58.8% and the viability, T/C (second compound 0.316 µM, first compound 0.000316 µM) was 73.8%. For the same compound, the viability, T/C (second compound 0.316 µM, first compound 0.001 µM) was 93.5%, the viability, T/C [13] was 83% and the viability, T/C [14] was 49%. The viability, T/C [15] was 68.7%, the viability, T/C [16] was 72% and the viability, T/C (second compound 1 µM, first compound 0.000316 µM) was 82%. It also gave a viability, T/C (second compound 1 µM, first compound 0.001 µM) of 70.5%, a viability, T/C [17] of 87.3% and a viability, T/C [18] of 90%. For the same compound, the viability, T/C [19] was 56.6% and the viability, T/C [20] was 66.5%.
Compound `COc1c(OCCCN2CCOCC2)ccc2c3n(c(=NC(=O)c4cnc(N)nc4)nc12)CCN3` + CNC(C)C(=O)NC1CN(S(=O)(=O)c2cccc(S(=O)(=O)N3CCC4CCC(C(=O)NC(c5ccccc5)c5ccccc5)N4C(=O)C(NC(=O)C(C)NC)C3)c2)CCC2CCC(C(=O)NC(c3ccccc3)c3ccccc3)N2C1=O has an IC50 (second compound 0.01 µM) of 8.04 nM, an IC50 (second compound 0.0316 µM) of 21 nM and an IC50 (second compound 0.1 µM) of 9.32 nM. For the same compound, the IC50 (second compound 0.316 µM) was 14.9 nM, the IC50 (second compound 1 µM) was 21.9 nM and the viability, T/C [1] was 63.6%. For the same compound, the viability, T/C [2] was 42.8%, the viability, T/C [3] was 38.4% and the viability, T/C [4] was 25.5%. The viability, T/C (second compound 0.01 µM, first compound 0.316 µM) was 17.9%, the viability, T/C (second compound 0.01 µM, first compound 1 µM) was 11.8% and the viability, T/C [5] was 73.1%. The viability, T/C [6] was 71.1%, the viability, T/C [7] was 35% and the viability, T/C [8] was 30%. It also gave a viability, T/C (second compound 0.0316 µM, first compound 0.316 µM) of 18%, a viability, T/C (second compound 0.0316 µM, first compound 1 µM) of 11.5% and a viability, T/C [9] of 71.3%. For the same compound, the viability, T/C [10] was 43.6%, the viability, T/C [11] was 36.1% and the viability, T/C [12] was 27.9%. The viability, T/C (second compound 0.1 µM, first compound 0.316 µM) was 17.1%, the viability, T/C (second compound 0.1 µM, first compound 1 µM) was 11.6% and the viability, T/C [13] was 91%. For the same compound, the viability, T/C [14] was 52.8%, the viability, T/C [15] was 35.6% and the viability, T/C [16] was 34.8%. The viability, T/C (second compound 0.316 µM, first compound 0.316 µM) was 16.5%, the viability, T/C (second compound 0.316 µM, first compound 1 µM) was 13.1% and the viability, T/C [17] was 83.3%. For the same compound, the viability, T/C [18] was 64.5%, the viability, T/C [19] was 42.5% and the viability, T/C [20] was 28.6%. The viability, T/C (second compound 1 µM, first compound 0.316 µM) was 17.6% and the viability, T/C (second compound 1 µM, first compound 1 µM) was 12.9%.
In the case of `NC(=O)C(=Cn1cnc(-c2cc(C(F)(F)F)cc(C(F)(F)F)c2)n1)c1cncnc1` + CNC(C)C(=O)NC1CN(S(=O)(=O)c2cccc(S(=O)(=O)N3CCC4CCC(C(=O)NC(c5ccccc5)c5ccccc5)N4C(=O)C(NC(=O)C(C)NC)C3)c2)CCC2CCC(C(=O)NC(c3ccccc3)c3ccccc3)N2C1=O, the IC50 (second compound 0.01 µM) is reported as 5.34 nM, the IC50 (second compound 0.0316 µM) is reported as 8.62 nM and the IC50 (second compound 0.1 µM) is reported as 44.6 nM. It also gave an IC50 (second compound 0.316 µM) of 23.4 nM, an IC50 (second compound 1 µM) of 47.4 nM and a viability, T/C (second compound 0.01 µM, first compound 0.000949 µM) of 96.9%. For the same compound, the viability, T/C (second compound 0.01 µM, first compound 0.003 µM) was 60.7%, the viability, T/C (second compound 0.01 µM, first compound 0.00949 µM) was 39% and the viability, T/C (second compound 0.01 µM, first compound 0.03 µM) was 43%. The viability, T/C (second compound 0.01 µM, first compound 0.0949 µM) was 37.4%, the viability, T/C (second compound 0.01 µM, first compound 0.3 µM) was 34.8% and the viability, T/C (second compound 0.0316 µM, first compound 0.000949 µM) was 84.4%. For the same compound, the viability, T/C (second compound 0.0316 µM, first compound 0.003 µM) was 91.9%, the viability, T/C (second compound 0.0316 µM, first compound 0.00949 µM) was 46.5% and the viability, T/C (second compound 0.0316 µM, first compound 0.03 µM) was 36.5%. For the same compound, the viability, T/C (second compound 0.0316 µM, first compound 0.0949 µM) was 34.8%, the viability, T/C (second compound 0.0316 µM, first compound 0.3 µM) was 27.4% and the viability, T/C (second compound 0.1 µM, first compound 0.000949 µM) was 97.8%. It also gave a viability, T/C (second compound 0.1 µM, first compound 0.003 µM) of 77.9%, a viability, T/C (second compound 0.1 µM, first compound 0.00949 µM) of 72.9% and a viability, T/C (second compound 0.1 µM, first compound 0.03 µM) of 52.6%. For the same compound, the viability, T/C (second compound 0.1 µM, first compound 0.0949 µM) was 42.6%, the viability, T/C (second compound 0.1 µM, first compound 0.3 µM) was 27.1% and the viability, T/C (second compound 0.316 µM, first compound 0.000949 µM) was 86.2%. It also gave a viability, T/C (second compound 0.316 µM, first compound 0.003 µM) of 76%, a viability, T/C (second compound 0.316 µM, first compound 0.00949 µM) of 39.8% and a viability, T/C (second compound 0.316 µM, first compound 0.03 µM) of 61.5%. It also gave a viability, T/C (second compound 0.316 µM, first compound 0.0949 µM) of 40.7%, a viability, T/C (second compound 0.316 µM, first compound 0.3 µM) of 25.9% and a viability, T/C (second compound 1 µM, first compound 0.000949 µM) of 108%. For the same compound, the viability, T/C (second compound 1 µM, first compound 0.003 µM) was 89.7%, the viability, T/C (second compound 1 µM, first compound 0.00949 µM) was 77.2% and the viability, T/C (second compound 1 µM, first compound 0.03 µM) was 58.6%. For the same compound, the viability, T/C (second compound 1 µM, first compound 0.0949 µM) was 36.1% and the viability, T/C (second compound 1 µM, first compound 0.3 µM) was 32.3%.

Source: PubChem BioAssay AID1963430 (Molecular Pharmacology Branch, DTP, NCI, 2024)
